The values that follow come from patent publication US6420348B1, “Pectic polysaccharides purified from Angelica gigas nakai and purification method and use as immunostimulating agent thereof” (Korea Institute of Science and Technology, priority 1997, dated 2002).

The test system of one data set is B16F10 cancer cells. As to the kind of experiment: direct cytotoxicity on cancer cells. The data set is classed as cell-based. The note with it: for survival number of treated cells as ratio to non-treated cells: 2 days. On the procedure:
Whether the anticancer effect of angelan came from specific mediation by cytotoxic T cells or from nonspecific mediation by macrophages and natural killer cells, was proven as follows. B16F10 cancer cells were treated with angelan and adriamicin at a dose of 0.3 to 30 μg/ml. After incubation for 2 days, the number of the survived cells was countered. The survival number of the treated cells was expressed as a ratio compared with the number of the non-treated cells.

The subject of the next data set is B16F10 melanoma. Description: host resistance model to syngeneic tumors. The data set is classed as in vivo, BDF1 mice. The note with it: for Viability: relative to non-treated mice; for Survival Animals (10 in total): survived 60 days. On the procedure:
The host resistance model to syngeneic tumors was prepared by the intraperitoneal transplantation of B16F10 melanoma to BDF1 mice. After transplantation, angelan was administered at a dose of 100 mg/kg/day while adriamicin was administered at a dose of 0.1 to 0.3 mg/kg. The survival rates of the treated mice was based on the viability of non-treated mice, and the number of the animals which survived for 60 days after the implantation, was counted.

In data set [1] the test system is B cell-depleted cell group (T cells). As to the kind of experiment: mitogenicity comparison, 3H-thymidine incorporation. In kind it is cell-based, mice. The note with it: 5 μg/ml. An excerpt:
(§1) In this example, the action mode of angelan was compared with those of other lymphocyte mitogens in three different lymphocyte groups. Lipopolysaccharide (LPS) was employed to induce the proliferation of B cell while phytohemagglutinin (PHA) and concanavalin A (Con A) were used as T cell mitogens. As a comitogen, that is, in order to induce both T-cells and B-cells to proliferate, pokeweed mitogen (PWM) was used.
(§2) Angelan was given to three different cell groups: total cell group including T- and B-cells, T cell-depleted cell group, and B cell-depleted cell group. Each cell groups were treated with angelan or one of LPS, PWM, Con A and PHA. After incubation, lymphocyte proliferation was measured by the incorporation of 3H-thymidine into the cellular DNA.

The test system of data set [2] is T cell-depleted cell group (B cells). Described as above. In kind it is cell-based, mice. The note with it: for Proliferation B cells: 5 μg/ml; for mitogenicity (in words): B cell-enriched group.
Description: as §1, §2

Data set [3] deals with total cell group including T- and B-cells. The description is as above. The data set is classed as cell-based, mice. The note with it: 5 μg/ml.
Description: as §1, §2

In the case of `COc1cccc2c1C(=O)c1c(O)c3c(c(O)c1C2=O)C[C@@](O)(C(=O)CO)C[C@@H]3O[C@H]1C[C@H](N)[C@H](O)[C@H](C)O1` [Adriamicin], the “cytotoxicity on cancer cells (in words)” value with B16F10 cancer cells is “showed cytotoxicity on cancer cells”. For the same molecule, the “survival number of treated cells as ratio to non-treated cells” value with B16F10 cancer cells (0.3 μg/ml) was determined as 56; in the data set on B16F10 cancer cells (1 μg/ml), 29; in the data set on B16F10 cancer cells (3 μg/ml), 9; in the data set on B16F10 cancer cells (10 μg/ml) it was 0; with B16F10 cancer cells (30 μg/ml), 0. For the same molecule, the Viability with B16F10 melanoma (adriamicin 0.1 mg/kg) is given as 195%; in the data set with B16F10 melanoma (adriamicin 0.3 mg/kg) it was more than 240%. Also, the “Survival Animals (10 in total)” value in the data set on B16F10 melanoma (adriamicin 0.1 mg/kg) is 0; in the data set with B16F10 melanoma (adriamicin 0.3 mg/kg) it was 2.
With concanavalin A [Con A], the “Proliferation T cells” value in data set [1] is on record as 3929 cpm/200,000 cells. Besides, the “Proliferation B cells” value in data set [2] is 6566 cpm/200,000 cells. Moreover, the “Proliferation B/T cells” value in data set [3] is on record as 6014 cpm/200,000 cells.
For the molecule phytohemagglutinin [PHA], the “Proliferation T cells” value in data set [1] is listed as 3127 cpm/200,000 cells. Moreover, the “Proliferation B cells” value in data set [2] is on record as 446 cpm/200,000 cells. In addition, the “Proliferation B/T cells” value in data set [3] is given as 1049 cpm/200,000 cells.
With Lipopolysaccharide [LPS], the “Proliferation T cells” value in data set [1] is on record as 869 cpm/200,000 cells. In data set [2], the “Proliferation B cells” value is reported as 11550 cpm/200,000 cells and the “mitogenicity (in words)” value is recorded as “had an effect”. Further, in data set [3], the “Proliferation B/T cells” value is 11665 cpm/200,000 cells.
For the molecule pokeweed mitogen [PWM], the “Proliferation T cells” value in data set [1] was 12171 cpm/200,000 cells. Moreover, in data set [2], the “Proliferation B cells” value is 358 cpm/200,000 cells and the “mitogenicity (in words)” value was “had an effect”. The “Proliferation B/T cells” value in data set [3] is listed as 10212 cpm/200,000 cells.
